Patent US20260258084A1, “New Peptides as Selective IL-23 Receptor Antagonists” (Sanofi, priority 2022, published 2026)
Converted amounts (≈) assume the structure as drawn. Read-outs that look alike come from different tables or passages of the source. Starred links: 1 amine or outer side, 2 acyl side, 3 side chain; linkers in the order of their positions; H or OH if unused. Positions of bridges follow the written chain, without caps; N, C: chain ends. Non-standard residues stand in square brackets, D forms with d. Residues, ends and D or L forms follow the SMILES beside them. *: point of attachment. X3 = CN(CCCCC(=O)N[C@@H](CS[*:2])C(=O)[*:1])[*:3]; Trp(7-Me) = Cc1cccc2c(C[C@H](N)C(=O)O)c[nH]c12; 2Nal = N[C@@H](Cc1ccc2ccccc2c1)C(=O)O; AEF = NCCOc1ccc(C[C@H](N)C(=O)O)cc1; X4 = CN(CCCCCC(=O)[*:2])[*:1]; αMeL = CC(C)C[C@](C)(N)C(=O)O; Thp = NC1(C(=O)O)CCOCC1; Me2NCH2CH2 = CN(C)CC*; Aib = CC(C)(N)C(=O)O; Ava = NCCCCC(=O)O; βAla = NCCC(=O)O; Sar = CNCC(=O)O

Assays:
[1] = Chemical stability assessment of peptides (relative purity loss); format: physicochemical; settings: 24 hours at 37° C.; for Chemical stability (relative purity loss) Buffer pH 1.2: 50 mM HCl pH 1.2 + acetonitrile (1:1); for Chemical stability (relative purity loss) Buffer pH 6.5: 50 mM phosphate buffer pH 6.5 + acetonitrile (1:1); for Chemical stability (relative purity loss) Buffer pH 7.4: 50 mM phosphate buffer pH 7.4 + acetonitrile (1:1)
Method in brief: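 Peptide solutions at 1 mg/ml (purity-corrected) in 1:1 acetonitrile with 50 mM HCl pH 1.2, or 50 mM phosphate pH 6.5 or pH 7.4, held 24 hours at 2° C. and 37° C. Supernatants analysed by UHPLC-UV; relative purity loss taken as percent drop in peak-area purity from 0 to 24 hours at 37° C.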

[2] = tested on: IL-23 induced STAT3 signaling in HEK-Blue™ IL-23 cells; assay: IL-23 induced STAT3 signaling in HEK-Blue IL-23 cells (SEAP reporter); format: cell-based; settings: human IL23 0.25 ng/ml, read-out: pSTAT3
Method in brief: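 Secreted SEAP, read at OD 620-655 nm after 45 min QUANTI-Blue development, reports STAT3 activation. Beforehand, cells were exposed to peptide dilutions for 60 min at 37 °C and then to 0.25 ng/ml final human IL-23 overnight, at 10,000 cells/well.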

[3] = biological target: T1, human interleukin-23 receptor (recombinant human IL-23R-Fc chimera) (Homo sapiens, UniProt Q5VWK5); assay: Human ELISA IL23/IL23R (assay for specific human IL23R antagonists); format: binding; settings: Table 10; read-out: Human ELISA IL23/IL23R IC50
T1 construct: Fc (IgG Fc fusion)
Method in brief: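 Competition format: peptide dilutions compete for IL23R-Fc chimera (0.1 μg/ml final, 60 min, room temperature) binding to immobilized human IL23 coated at […] overnight at 4 °C. Read-out is fluorogenic HRP signal from goat anti-hu-IgG1 detecting captured receptor.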

Pepsin = tested on: T2, Pepsin; assay: Protease stability in simulated gastric fluid (Pepsin-SGF, FaSSGF); format: in vitro ADME; settings: simulated gastric fluid with pepsin (Pepsin-SGF), 60 min, 1 μM peptide, 37° C., read-out: FaSSGF 60 (min), remaining percent of peptide
T2 construct: purchased Merck Millipore
Method in brief: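 LCMS/MS peak areas, normalised to the time-0 sample as 100%, give percent remaining. Conditions: 37° C incubation of 1 μM final peptide in simulated gastric fluid with pepsin; ethanol/0.1% HCOOH quench at 0, 60, 120, 240 min.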

[4] = Solubility testing of peptides at different pH; format: physicochemical; settings: target concentration 1 mg/ml, 2 hours agitation
Method in brief: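 Four buffers were used: 50 mM HCl pH 1.2 and 50 mM phosphate at pH 6.5, 7.4 and 9.0, each receiving dried-down compound at a 1 mg/mL target. After 2 h gentle shaking and 0.45 μm filtration, UV peak areas were compared with a DMSO standard curve of known concentration, allowing for extinction coefficients.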

[5] = 50 mM HCl buffer, 50 mM HCl pH 1.2, read-out: Solubility Buffer pH 1.2
[6] = 50 mM phosphate buffer pH 6.5, read-out: Solubility Buffer pH 6.5
[7] = 50 mM phosphate buffer pH 7.4, read-out: Solubility Buffer pH 7.4
[8] = 50 mM phosphate buffer pH 9.0, read-out: Solubility Buffer pH 9.0

Row | SMILES | Chemical stability (relative purity loss) Buffer pH 1.2 [1] | Chemical stability (relative purity loss) Buffer pH 6.5 [1] | Chemical stability (relative purity loss) Buffer pH 7.4 [1] | IC50 [3] | remaining at 1 h, 1 µM (Pepsin) | solubility at 2 h [4, 5] | solubility at 2 h [4, 6] | solubility at 2 h [4, 7] | solubility at 2 h [4, 8] | IC50 [2]
1 | CC(C)C[C@@H](NC(=O)[C@H](CC(N)=O)NC(=O)[C@@H]1CC(=O)N(C)CCCCCC(=O)N[C@H]2CSSC[C@H](NC(=O)[C@H](CCC(N)=O)NC(=O)[C@H](Cc3c[nH]c4ccccc34)NC(=O)[C@H]([C@@H](C)O)NC(=O)[C@H](CC(N)=O)NC2=O)C(=O)N[C@@H](Cc2ccc(OCCN(C)C)cc2)C(=O)N[C@@H](Cc2ccc3ccccc3c2)C(=O)N[C@@](C)(CC(C)C)C(=O)N1)C(N)=O [compound 40] ([X4]CNTWQCY(Me2NCH2CH2)[2Nal][αMeL]DN[dL]-NH2; disulfide 2-7; lactam N-11) | 8.3% | 1.3% | 3.0% | 1 nM | 12% | < 10 µg/mL | < 10 µg/mL | < 10 µg/mL | < 10 µg/mL | 50.8 nM
2 | CC(=O)N[C@H]1CCCCNC(=O)[C@@H]2CSSC[C@H](NC(=O)[C@H](CCC(N)=O)NC(=O)[C@H](Cc3c[nH]c4ccccc34)NC1=O)C(=O)N[C@@H](Cc1ccc(OCCN)cc1)C(=O)N[C@@H](Cc1ccc3ccccc3c1)C(=O)NC1(CCOCC1)C(=O)N[C@H](C(=O)N[C@@H](CC(N)=O)C(=O)N[C@@H](CC(N)=O)C(N)=O)CCC(=O)N(C)CCCCC(=O)N2 [compound 13] (Ac-KWQC[AEF][2Nal][Thp]ENN-NH2; linker 1-4-8 via X3) | 23.3% | 0.2% | 1.6% | 0.61 nM | 73% | ≥ 1050 µg/mL | ≥ 1070 µg/mL | 770 µg/mL (≈ 456 µM) | ≥ 990 µg/mL | 32 nM
3 | CC(=O)N[C@H]1CCCCNC(=O)[C@@H]2CSSC[C@H](NC(=O)[C@H](CCC(N)=O)NC(=O)[C@H](Cc3c[nH]c4ccccc34)NC1=O)C(=O)N[C@@H](Cc1ccc(OCCN)cc1)C(=O)N[C@@H](Cc1ccc3ccccc3c1)C(=O)NC1(CCOCC1)C(=O)N[C@H](C(=O)N[C@@H](C)C(=O)N[C@H](CC(C)C)C(N)=O)CCC(=O)N(C)CCCCC(=O)N2 [compound 34] (Ac-KWQC[AEF][2Nal][Thp]EA[dL]-NH2; linker 1-4-8 via X3) | 7.9% | 0.0% | 0.3% | 0.57 nM | 84% | ≥ 970 µg/mL | ≥ 910 µg/mL | 270 µg/mL (≈ 164 µM) | 140 µg/mL (≈ 85.1 µM) | 13.3 nM
4 | CC(=O)N[C@H]1CCCCNC(=O)[C@@H]2CSSC[C@H](NC(=O)[C@H](CCC(N)=O)NC(=O)[C@H](Cc3c[nH]c4ccccc34)NC1=O)C(=O)N[C@@H](Cc1ccc(OCCN)cc1)C(=O)N[C@@H](Cc1ccc3ccccc3c1)C(=O)NC(C)(C)C(=O)N[C@H](C(=O)N[C@@H](C)C(=O)N[C@H](CC(C)C)C(N)=O)CCC(=O)N(C)CCCCC(=O)N2 [compound 19] (Ac-KWQC[AEF][2Nal][Aib]EA[dL]-NH2; linker 1-4-8 via X3) | 7.9% | 0.0% | 0.0% | 0.74 nM | 79% | 10 µg/mL (≈ 6.24 µM) | 20 µg/mL (≈ 12.5 µM) | < 10 µg/mL | < 10 µg/mL | 88.3 nM
5 | CC(=O)NCCCC[C@@H]1NC(=O)[C@H](Cc2c[nH]c3c(C)cccc23)NC(=O)[C@H]([C@@H](C)O)NC(=O)[C@H](CC(N)=O)NC(=O)[C@@H]2CSSC[C@H](NC1=O)C(=O)N[C@@H](Cc1ccc(OCCN(C)C)cc1)C(=O)N[C@@H](Cc1ccc3ccccc3c1)C(=O)NC1(CCOCC1)C(=O)N[C@H](C(=O)N[C@@H](CC(N)=O)C(=O)N[C@@H](Cc1c[nH]cn1)C(=O)N(C)CC(N)=O)CCC(=O)NCCCCC(=O)N2 [compound 46] ([Ava]CNT[Trp(7-Me)]K(Ac)CY(Me2NCH2CH2)[2Nal][Thp]ENH[Sar]-NH2; disulfide 2-7; lactam N-11) | 9.9% | 1.9% | 1.8% | 0.36 nM | 100% | ≥ 1080 µg/mL | ≥ 1060 µg/mL | ≥ 1060 µg/mL | ≥ 1030 µg/mL | 0.84 nM

Now those with a lower IC50 [3], led by results:

Row | Chemical stability (relative purity loss) Buffer pH 1.2 [1] | Chemical stability (relative purity loss) Buffer pH 6.5 [1] | Chemical stability (relative purity loss) Buffer pH 7.4 [1] | IC50 [3] | remaining at 1 h, 1 µM (Pepsin) | solubility at 2 h [4, 5] | solubility at 2 h [4, 6] | solubility at 2 h [4, 7] | solubility at 2 h [4, 8] | SMILES | IC50 [2]
6 | 13.2% | 1.1% | 4.2% | 0.33 nM | 62% | ≥ 1070 µg/mL | ≥ 950 µg/mL | ≥ 1000 µg/mL | 810 µg/mL (≈ 496 µM) | CC(=O)N[C@H]1CCCCNC(=O)[C@@H]2CSSC[C@H](NC(=O)[C@H](CCC(N)=O)NC(=O)[C@H](Cc3c[nH]c4ccccc34)NC1=O)C(=O)N[C@@H](Cc1ccc(OCCN)cc1)C(=O)N[C@@H](Cc1ccc3ccccc3c1)C(=O)NC1(CCOCC1)C(=O)N[C@H](C(=O)N[C@@H](CC(N)=O)C(=O)NCC(N)=O)CCC(=O)N(C)CCCCC(=O)N2 [compound 16] (Ac-KWQC[AEF][2Nal][Thp]ENG-NH2; linker 1-4-8 via X3) | 32.1 nM
7 | 11.6% | 1.2% | 1.4% | 0.33 nM | 100% | ≥ 1110 µg/mL | ≥ 1090 µg/mL | ≥ 1050 µg/mL | ≥ 1040 µg/mL | CC(=O)NCCCC[C@@H]1NC(=O)[C@H](Cc2c[nH]c3c(C)cccc23)NC(=O)[C@H]([C@@H](C)O)NC(=O)[C@H](CC(N)=O)NC(=O)[C@@H]2CSSC[C@H](NC1=O)C(=O)N[C@@H](Cc1ccc(OCCN(C)C)cc1)C(=O)N[C@@H](Cc1ccc3ccccc3c1)C(=O)NC1(CCOCC1)C(=O)N[C@H](C(=O)N[C@@H](CC(N)=O)C(=O)N[C@@H](Cc1c[nH]cn1)C(=O)NCCC(N)=O)CCC(=O)NCCCCC(=O)N2 [compound 49] ([Ava]CNT[Trp(7-Me)]K(Ac)CY(Me2NCH2CH2)[2Nal][Thp]ENH[βAla]-NH2; disulfide 2-7; lactam N-11) | 1.79 nM
8 | 15.7% | 0.0% | 2.3% | 0.32 nM | 100% | ≥ 1160 µg/mL | ≥ 1060 µg/mL | ≥ 1180 µg/mL | 350 µg/mL (≈ 189 µM) | CC(=O)NCCCC[C@@H]1NC(=O)[C@H](Cc2c[nH]c3c(C)cccc23)NC(=O)[C@H]([C@@H](C)O)NC(=O)[C@H](CC(N)=O)NC(=O)[C@@H]2CSSC[C@H](NC1=O)C(=O)N[C@@H](Cc1ccc(OCCN(C)C)cc1)C(=O)N[C@@H](Cc1ccc3ccccc3c1)C(=O)NC(C)(C)C(=O)N[C@H](C(=O)N[C@@H](CC(N)=O)C(=O)N[C@@H](Cc1c[nH]cn1)C(=O)N(C)CC(N)=O)CCC(=O)NCCCCC(=O)N2 [compound 45] ([Ava]CNT[Trp(7-Me)]K(Ac)CY(Me2NCH2CH2)[2Nal][Aib]ENH[Sar]-NH2; disulfide 2-7; lactam N-11) | 0.67 nM
9 | 13.0% | 0.7% | 1.5% | 0.29 nM | 99% | ≥ 1000 µg/mL | ≥ 980 µg/mL | 670 µg/mL (≈ 353 µM) | 440 µg/mL (≈ 232 µM) | CC(=O)NCCCC[C@@H]1NC(=O)[C@H](Cc2c[nH]c3c(C)cccc23)NC(=O)[C@H]([C@@H](C)O)NC(=O)[C@H](CC(N)=O)NC(=O)[C@@H]2CSSC[C@H](NC1=O)C(=O)N[C@@H](Cc1ccc(OCCN(C)C)cc1)C(=O)N[C@@H](Cc1ccc3ccccc3c1)C(=O)N[C@@](C)(CC(C)C)C(=O)N[C@H](C(=O)N[C@@H](CC(N)=O)C(=O)N[C@@H](Cc1c[nH]cn1)C(=O)NCCC(N)=O)CCC(=O)NCCCCC(=O)N2 [compound 50] ([Ava]CNT[Trp(7-Me)]K(Ac)CY(Me2NCH2CH2)[2Nal][αMeL]ENH[βAla]-NH2; disulfide 2-7; lactam N-11) | 0.98 nM
